Assay results reported in patent publication US9914730B2, “Azaquinazoline inhibitors of Atypical protein Kinase C” (Ignyta, Inc., priority 2012, dated 2018).

Molecular target: T1, full-length human PKCι (Homo sapiens, UniProt P41743)
T1 construct: Recombinant, full-length human PKCι expressed in Sf21 insect cells is also commercially available; purchased; host or cells: Sf21 insect cells
T1 sequence (P41743 1-596): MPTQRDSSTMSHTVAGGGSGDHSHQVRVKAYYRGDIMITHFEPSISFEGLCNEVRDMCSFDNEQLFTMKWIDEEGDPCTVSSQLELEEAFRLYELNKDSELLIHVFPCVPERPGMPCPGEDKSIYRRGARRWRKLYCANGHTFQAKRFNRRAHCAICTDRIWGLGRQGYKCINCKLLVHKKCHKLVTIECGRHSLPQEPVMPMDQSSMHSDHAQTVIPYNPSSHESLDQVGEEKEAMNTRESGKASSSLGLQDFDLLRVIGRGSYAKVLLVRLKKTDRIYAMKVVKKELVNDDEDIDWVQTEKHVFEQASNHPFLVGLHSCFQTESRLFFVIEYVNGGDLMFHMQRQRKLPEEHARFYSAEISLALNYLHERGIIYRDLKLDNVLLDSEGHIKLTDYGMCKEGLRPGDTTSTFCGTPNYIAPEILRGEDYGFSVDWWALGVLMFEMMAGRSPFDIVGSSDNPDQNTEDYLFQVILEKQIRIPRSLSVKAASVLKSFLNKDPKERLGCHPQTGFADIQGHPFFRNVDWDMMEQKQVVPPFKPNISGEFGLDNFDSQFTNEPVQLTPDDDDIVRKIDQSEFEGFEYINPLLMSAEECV
Assay: PKCι IC50 IMAP assay, full-length PKCι at 150 μM ATP
Format: biochemical
Details: read-out: IC50 in IMAP assay against full length PKCi at 150 μM ATP
Outline: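 IMAP fluorescence polarisation (ex 485/em 530 nm) read-out; % inhibition set from no-compound (0%) and no-enzyme (100%) controls, IC50 from dose-response curve fit. Sf21-expressed full-length enzyme ~15 pM, 100 nM FAM peptide, ATP 150 μM (5× KM^APP), 60 min at RT.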

`C[C@@H](Nc1cc(-c2nc(N3CCNCC3)c3c(C4CC4)cncc3n2)ccn1)c1c(F)cccc1F` [Example 653, [4-(5-Cyclopropyl-4-piperazin-1-yl-pyrido[3,4-d]pyrimidin-2-yl)-pyridin-2-yl]-[(R)-1-(2,6-difluoro-phenyl)-ethyl]-amine] and `Fc1ccnc(F)c1Nc1cc(-c2nc(N3CCNCC3)c3c(C4CC4)cncc3n2)ccn1` [Example 670, [4-(5-Cyclopropyl-4-piperazin-1-yl-pyrido[3,4-d]pyrimidin-2-yl)-pyridin-2-yl]-(2,4-difluoro-pyridin-3-yl)-amine] cannot be ordered by IC50: < 100 nM for the first, < 100 nM for the second.

`Fc1cnc(Nc2ccccc2)cc1-c1nc(N2CCNCC2)c2c(C3CC3)cncc2n1` [Example 654, [4-(5-Cyclopropyl-4-piperazin-1-yl-pyrido[3,4-d]pyrimidin-2-yl)-5-fluoro-pyridin-2-yl]-phenyl-amine] and `Fc1ccc(Nc2cc(-c3nc(N4CCNCC4)c4c(C5CC5)cncc4n3)ccn2)cn1` [Example 672, [4-(5-Cyclopropyl-4-piperazin-1-yl-pyrido[3,4-d]pyrimidin-2-yl)-pyridin-2-yl]-(6-fluoro-pyridin-3-yl)-amine] cannot be ordered by IC50: < 100 nM for the first, < 100 nM for the second.

`CC(C)NC(=O)C1CCN(c2nc(-c3ccnc(Nc4c(F)cccc4F)c3)nc3cncc(C4CC4)c23)CC1` [Example 655, 1-{5-Cyclopropyl-2-[2-(2,6-difluoro-phenylamino)-pyridin-4-yl]-pyrido[3,4-d]pyrimidin-4-yl}-piperidine-4-carboxylic acid isopropylamide] and `CNC(=O)C1CCN(c2nc(-c3ccnc(Nc4c(F)cccc4F)c3)nc3cncc(C4CC4)c23)CC1` [Example 669, 1-{5-Cyclopropyl-2-[2-(2,6-difluoro-phenylamino)-pyridin-4-yl]-pyrido[3,4-d]pyrimidin-4-yl}-piperidine-4-carboxylic acid methylamide] fall in the same range of IC50: 1000 to 10000 nM for the first, 1000 to 10000 nM for the second.

First: NC(=O)C1CCN(c2nc(-c3ccnc(Nc4c(F)cccc4F)c3)nc3cncc(C4CC4)c23)CC1 [Example 656, 1-{5-Cyclopropyl-2-[2-(2,6-difluoro-phenylamino)-pyridin-4-yl]-pyrido[3,4-d]pyrimidin-4-yl}-piperidine-4-carboxylic acid amide]
Second: O=C(NCCF)C1CCN(c2nc(-c3ccnc(Nc4c(F)cccc4F)c3)nc3cncc(C4CC4)c23)CC1 [Example 658, 1-{5-Cyclopropyl-2-[2-(2,6-difluoro-phenylamino)-pyridin-4-yl]-pyrido[3,4-d]pyrimidin-4-yl}-piperidine-4-carboxylic acid (2-fluoro-ethyl)-amide]
The IC50 of the first is lower: 100 to 1000 nM for the first, 1000 to 10000 nM for the second.

First: CC(=O)NC1CCN(c2nc(-c3ccnc(Nc4c(F)cccc4F)c3)nc3cncc(C4CC4)c23)CC1 [Example 657, N-(1-{5-Cyclopropyl-2-[2-(2,6-difluoro-phenylamino)-pyridin-4-yl]-pyrido[3,4-d]pyrimidin-4-yl}-piperidin-4-yl)-acetamide]
Second: O=C(NCCN1CCCC1)C1CCN(c2nc(-c3ccnc(Nc4c(F)cccc4F)c3)nc3cncc(C4CC4)c23)CC1 [Example 668, 1-{5-Cyclopropyl-2-[2-(2,6-difluoro-phenylamino)-pyridin-4-yl]-pyrido[3,4-d]pyrimidin-4-yl}-piperidine-4-carboxylic acid (2-pyrrolidin-1-yl-ethyl)-amide]
The IC50 of the first is higher: 100 to 1000 nM for the first, < 100 nM for the second.

First: CC(=O)Nc1cc(-c2nc(N3CCN[C@H](C(F)(F)F)C3)c3c(C4CC4)cncc3n2)ccn1 [Example 659, N-{4-[5-Cyclopropyl-4-((S)-3-trifluoromethyl-piperazin-1-yl)-pyrido[3,4-d]pyrimidin-2-yl]-pyridin-2-yl}-acetamide]
Second: FC(F)(F)[C@H]1CN(c2nc(-c3ccnc(Cl)c3)nc3cncc(C4CC4)c23)CCN1 [Example 660, 2-(2-Chloro-pyridin-4-yl)-5-cyclopropyl-4-((R)-3-trifluoromethyl-piperazin-1-yl)-pyrido[3,4-d]pyrimidine]
The IC50 of the first is lower: 100 to 1000 nM for the first, 10000 to 40000 nM for the second.

First: COCCN1CCN(c2nc(-c3ccnc(Nc4ccccc4)c3)nc3cncc(C4CC4)c23)CC1 [Example 661, (4-{5-Cyclopropyl-4-[4-(2-methoxy-ethyl)-piperazin-1-yl]-pyrido[3,4-d]pyrimidin-2-yl}-pyridin-2-yl)-phenyl-amine]
Second: CS(=O)(=O)CCN1CCN(c2nc(-c3ccnc(Nc4ccccc4)c3)nc3cncc(C4CC4)c23)CC1 [Example 663, (4-{5-Cyclopropyl-4-[4-(2-methanesulfonyl-ethyl)-piperazin-1-yl]-pyrido[3,4-d]pyrimidin-2-yl}-pyridin-2-yl)-phenyl-amine]
The IC50 of the first is higher: 1000 to 10000 nM for the first, 100 to 1000 nM for the second.

`COCCN1CCN(c2nc(-c3ccnc(Nc4ccc(F)cc4)c3)nc3cncc(C4CC4)c23)CC1` [Example 662, (4-{5-Cyclopropyl-4-[4-(2-methoxy-ethyl]-piperazin-1-yl]-pyrido[3,4-d]pyrimidin-2-yl}-pyridin-2-yl)-(4-fluoro-phenyl)-amine] and `CS(=O)(=O)CCN1CCN(c2nc(-c3ccnc(Nc4ccc(F)cc4)c3)nc3cncc(C4CC4)c23)CC1` [Example 664, (4-{5-Cyclopropyl-4-[4-(2-methanesulfonyl-ethyl)-piperazin-1-yl]-pyrido[3,4-d]pyrimidin-2-yl}-pyridin-2-yl)-(4-fluoro-phenyl)-amine] fall in the same range of IC50: 1000 to 10000 nM for the first, 1000 to 10000 nM for the second.

`CS(=O)(=O)CCN1CCN(c2nc(-c3ccnc(NC(=O)C4CC4)c3)nc3cncc(C4CC4)c23)CC1` [Example 665, Cyclopropane-carboxylic acid (4-{5-cyclopropyl-4-[4-(2-methanesulfonyl-ethyl)-piperazin-1-yl]-pyrido[3,4-d]pyrimidin-2-yl}-pyridin-2-yl)-amide] and `COCCN1CCN(c2nc(-c3ccnc(NC(=O)C4CC4)c3)nc3cncc(C4CC4)c23)CC1` [Example 666, Cyclopropane-carboxylic acid (4-{5-cyclopropyl-4-[4-(2-methoxy-ethyl)-piperazin-1-yl]-pyrido[3,4-d]pyrimidin-2-yl}-pyridin-2-yl)-amide] fall in the same range of IC50: 1000 to 10000 nM for the first, 1000 to 10000 nM for the second.

`Fc1ccc(C2CC2)cc1Nc1cc(-c2nc(N3CCNCC3)c3c(C4CC4)cncc3n2)ccn1` [Example 667, (5-Cyclopropyl-2-fluoro-phenyl)-[4-(5-cyclopropyl-4-piperazin-1-yl-pyrido[3,4-d]pyrimidin-2-yl)-pyridin-2-yl]-amine] and `Fc1ccc(Nc2cc(-c3nc(N4CCNCC4)c4c(C5CC5)cncc4n3)ccn2)c(F)n1` [Example 671, [4-(5-Cyclopropyl-4-piperazin-1-yl-pyrido[3,4-d]pyrimidin-2-yl)-pyridin-2-yl]-(2,6-difluoro-pyridin-3-yl)-amine] cannot be ordered by IC50: < 100 nM for the first, < 100 nM for the second.

Compared with `FC1(F)CCCC(Nc2cc(-c3nc(N4CCNCC4)c4c(C5CC5)cncc4n3)ccn2)C1` (stereo not shown) [Example 673, [4-(5-Cyclopropyl-4-piperazin-1-yl-pyrido[3,4-d]pyrimidin-2-yl)-pyridin-2-yl]-(3,3-difluoro-cyclohexyl)-amine], `CC(C)NC(=O)C1CCN(c2nc(-c3ccnc(NC4CCCC4)c3)nc3cncc(C4CC4)c23)CC1` [Example 679, 1-[2-(2-Cyclopentylamino-pyridin-4-yl)-5-cyclopropyl-pyrido[3,4-d]pyrimidin-4-yl]-piperidine-4-carboxylicacid isopropylamide] is higher in IC50: < 100 nM for the first, 1000 to 10000 nM for the second.

Compared with `CC(C)NC(=O)C1CCN(c2nc(-c3ccnc(NC4CCCCC4)c3)nc3cncc(C4CC4)c23)CC1` [Example 674, 1-[2-(2-Cyclohexylamino-pyridin-4-yl)-5-cyclopropyl-pyrido[3,4-d]pyrimidin-4-yl]-piperidine-4-carboxylicacid isopropylamide], `O=C(O)c1ccc(Nc2cc(-c3nc(N4CCNCC4)c4c(C5CC5)cncc4n3)ccn2)cc1` [Example 684, 4-[4-(5-Cyclopropyl-4-piperazin-1-yl-pyrido[3,4-d]pyrimidin-2-yl)-pyridin-2-ylamino]-benzoic acid] is lower in IC50: 1000 to 10000 nM for the first, 100 to 1000 nM for the second.

First: Fc1cc(F)c(Nc2cc(-c3nc(N4CCNCC4)c4c(C5CC5)cncc4n3)ccn2)nc1F [Example 680]
Second: Fc1cc(Nc2cc(-c3nc(N4CCNCC4)c4c(C5CC5)cncc4n3)ccn2)c(F)c(F)n1 [Example 682, [4-(5-Cyclopropyl-4-piperazin-1-yl-pyrido[3,4-d]pyrimidin-2-yl)-pyridin-2-yl]-(2,3,6-trifluoro-pyridin-4-yl)-amine]
The IC50 of the first is lower: < 100 nM for the first, 100 to 1000 nM for the second.

Compared with `CN1CCN(c2cccc(Nc3cc(-c4nc(N5CCNCC5)c5c(C6CC6)cncc5n4)ccn3)c2)CC1` [Example 681, [4-(5-Cyclopropyl-4-piperazin-1-yl-pyrido[3,4-d]pyrimidin-2-yl)-pyridin-2-yl]-[3-(4-methyl-piperazin-1-yl)-phenyl]-amine], `c1ccc(-c2ccc(Nc3cc(-c4nc(N5CCNCC5)c5c(C6CC6)cncc5n4)ccn3)cc2)cc1` [Example 683, Biphenyl-4-yl-[4-(5-cyclopropyl-4-piperazin-1-yl-pyrido[3,4-d]pyrimidin-2-yl)-pyridin-2-yl]-amine] is higher in IC50: < 100 nM for the first, 1000 to 10000 nM for the second. The first is the more potent here.
